What was measured:
[1] = normal refrigerator temperature of approximately 4° C.; cited from earlier work
[2] = Accelerated shelf life tests of sodium folinate injection, 40° C./75% RH; type: physicochemical; conditions: during autoclaving (121° C. for 7 min)
Description: Tests were carried out with sodium folinate bulk solutions of 200 ml containing 25, 100, 250 and 400 mg sodium folinate/ml respectively as indicated in Table 1. Each bulk solution was prepared with a 2% excess of sodium folinate, because during autoclaving ca. 2% folinic acid decomposes. Subsquently, 2.15 ml of each formulated solution was used to fill 2R bottles to the exclusion of air. Afterwards, the bottles were then autoclaved at 121° C. for 7 min. The bottles were thereafter stored at 40° C./75% RH (RH=relative humidity). The following analyses were carried out initially at the beginning of the test and after two weeks:
oxygen percentage in the headspace
content of folinic acid and decomposition products.
The results are summarized in the Tables 2-5 for the accelerated shelf life tests of the sodium folinate injection preparation having a content of sodium folinate of 25 mg/ml, 100 mg/ml, 250 mg/ml and 400 mg/ml, respectively. The bottles were stored at 40° C./[…] during the two week time period for the shelf life tests.

| Structure (SMILES) | Concentration at which crystallization takes place [1] [µg/mL] | Folinic acid decomposed during autoclaving [2] |
| --- | --- | --- |
| Nc1nc(=O)c2c([nH]1)NCC(CNc1ccc(C(=O)N[C@@H](CCC(=O)[O-])C(=O)[O-])cc1)N2C=O.[Ca+2] (some centres unmarked) [Calcium folinate, calcium folinate] | ≥ 15000 |  |
| Nc1nc(=O)c2c([nH]1)NC[C@@H](CNc1ccc(C(=O)N[C@@H](CCC(=O)O)C(=O)O)cc1)N2C=O [folinic acid] |  | ca. 2% |

Reference: patent US6613767B1, “Stable aqueous folinate solution” (Pharmachemie B.V., priority 1994, dated 2003)
